Test results: US10798946B2, “Method for managing flea beetles of the family chrysomelidae in Brassica crops” (BASF Agrochemical Products B.V., priority 2015, dated 2020)

Tested on: Psylliodes chrysocephala (PSYICH; rape flea beetle)
Test: Field trial: flea beetle attack on winter oilseed rape, counted as crop plants with eating damage
Type: in vivo
Protocol: A field trial to investigate methods for flea beetle management in Brassica crops was carried out under the regime of Good Experimental Practice (GEP) in Germany, federal state of Niedersachsen. The trial was set up in a 3 time replicated, one factorial randomized block design. The plot size was 45 m^2.
The winter oilseed rape (WOSR) variety used in the trial was the commercial hybrid “Edimax CL®” carrying a tolerance against imidazolinone herbicides. As trap plant Sinapis alba, variety “Ascot” was used.
All WOSR seeds had been commercially treated with the product Aatiram65®, containing the active ingredient Thiram (650 g/I), at a dose rate of […] seeds to protect the seed from emergence diseases.
Only the WOSR seeds for the respective plots had been treated with 160 ml/100 kg seeds with a flowable concentrate containing 8% of Bacillus amyloliquefaciens ssp. plantarum MBI600 as flea beetle repellant.
For the trap plants, no seed treatment was applied.
At the day of seeding, the trap plants were seeded first in the respective plots at a seed rate of 3.6 k/ha using a plot seeder. Afterwards, the plots with WOSR treated with Aatiram65® only were seeded, then WOSR treated on top with Bacillus amyloliquefaciens ssp. plantarum MBI600. Thus, any contamination/mixing of the different seeds and seed treatments was prevented. In both cases, a WOSR seeding rate of 50 seeds per m^2 was targeted.
In order to control any undesired vegetation besides the crop and the trap plants, the commercial broad spectrum herbicide Butisan Top® was applied at a dose rate of 2.0 I/ha pre-emergence of the crop and trap plants.
After the crop was mature enough to overcome flea beetle damage (2-4 true leaf stage (BBCH 12-14)), the plots were sprayed with Pulsar 40 (active ingredient Imazamox) at a dose rate of 0.875 I/ha.
The intensity of the flea beetle attack was evaluated 26 days after seeding (DAS) and 33 DAS by counting the number of crop plants with eating damage. On the first assessment, the crop plants were in 1-2 true leaf stage (BBCH 11-12), at the later assessment, the crop plants had developed to the 1-4 true leaf stage (BBCH 11-14).

## Bacillus amyloliquefaciens ssp. plantarum MBI600 [MBI 600]
Field trial, both days of assessment
  infestation / number of crop plants attacked by flea beetles (in words): did not reduce the infestation
Number of crop plants with eating damage, 26 days after seeding, WOSR Edimax CL, BBCH 11-12, MBI600 seed treatment 160 ml/100 kg seeds of 8% flowable concentrate
  plants with eating damage (26 DAS): 34
Number of crop plants with eating damage, 33 days after seeding, WOSR Edimax CL, BBCH 11-14, MBI600 seed treatment 160 ml/100 kg seeds of 8% flowable concentrate
  plants with eating damage (33 DAS): 34
Relative to treatment 1 (none) = 100, 26 days after seeding
  plants with eating damage (26 DAS), rel.: 103
Relative to treatment 1 (none) = 100, 33 days after seeding
  plants with eating damage (33 DAS), rel.: 91
